Patent US20220324865A1 (Bayer Aktiengesellschaft, priority 2018, published 2022)

Biological target: T1, human EP3 receptor (Homo sapiens, UniProt P43115)
T1 construct: expressed in transfected cells; host or cells: CHO K1 (Chinese Hamster Ovary), stably co-transfected with Galpha16 and mitochondrial clytin
T1 sequence (P43115 1-390): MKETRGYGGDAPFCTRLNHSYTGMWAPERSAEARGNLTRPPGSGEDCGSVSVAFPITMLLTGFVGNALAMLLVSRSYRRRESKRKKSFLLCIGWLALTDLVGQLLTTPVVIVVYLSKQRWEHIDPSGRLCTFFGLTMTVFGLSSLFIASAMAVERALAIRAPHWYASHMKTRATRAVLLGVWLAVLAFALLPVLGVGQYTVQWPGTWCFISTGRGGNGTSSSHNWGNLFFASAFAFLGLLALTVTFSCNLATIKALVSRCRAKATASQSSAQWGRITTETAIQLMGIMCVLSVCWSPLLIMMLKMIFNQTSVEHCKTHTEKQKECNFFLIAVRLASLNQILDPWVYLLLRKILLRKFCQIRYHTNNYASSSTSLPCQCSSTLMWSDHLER
Assay: Cellular in vitro assay for determining EP3 receptor activity (human EP3 cell line, sulprostone-stimulated calcium luminescence)
Type: cell-based
Conditions: CHO cells expressing human EP3 and mitochondrial Clytin; antagonist mode, sulprostone at EC50; read-out: EP3 CHO mtCLY ANTAG IC50
Description: B-1. Cellular In Vitro Assay for Determining EP3 Receptor Activity
The identification of antagonists of the EP3 receptor from humans and rats as well as the quantification of the activity of the compounds of the invention was carried out using recombinant cell lines. These cell lines originally derive from a hamsters ovary epithelial cell (Chinese Hamster Ovary, CHO K1, ATCC: American Type Culture Collection, Manassas, Va. 20108, USA). The test cell lines constitutively express the human or rat EP3 receptors. The naturally Gαi-coupled human and rat EP3 receptors were stably co-transfected with Gα16 into cells that are also stably transfected with a mitochondrial form of the calcium-sensitive photoproteins Clytin (human EP3) or Photina (rat EP3), which, after reconstitution with the cofactor coelenterazine, emit light when there are increases in free calcium concentrations (Nature 1992, 358, 325-327; Gene 1995, 153 (2), 273-274). The resulting EP3 receptor cells react to stimulation of the recombinantly expressed EP3 receptors by the agonist sulprostone with intracellular release of calcium ions, which can be quantified by the resulting photoprotein luminescence. Antagonists inhibit the receptor signaling, leading to reduced calcium release and luminescence. The bioluminescence of the cell lines is detected using a suitable luminometer (Trends Pharmacol. Sci. 1996, 17, 235-237).
Human and Rat EP3 Cell Lines:
On the day before the assay, the cells are plated out in culture medium (OptiMEM, 1% FCS, 2 mM glutamine, 10 mM HEPES, 5 μg/ml coelenterazine) in 384-well microtiter plates and kept in a cell incubator (96% humidity, 5% v/v CO2, 37° C.). On the day of the assay, test compounds in various concentrations are placed for 10 minutes in the wells of the microtiter plate before the agonist sulprostone at EC50 concentration is added. The resulting light signal is measured immediately in a luminometer. All concentrations are measured in quadruples.

SMILES | IC50 [nM]
Cc1ccc([C@@H](C)NC(=O)c2nn3cc(-c4cnc5cccc(C)c5c4)[nH]c(=O)c3c2C(C)C)cc1 [Example 4-55, N-[(1R)-1-(4-Methylphenyl)ethyl]-6-(5-methylquinolin-3-yl)-4-oxo-3-(propan-2-yl)-4,5-dihydropyrazolo[1,5-a]pyrazine-2-carboxamide] | 2.75
CC[C@@H](C)NC(=O)c1cc2c(=O)[nH]c(-c3ccc(C)c(C4CC4)c3)cn2n1 [6-613] | 3.67
CC(C)(O)[C@@H](NC(=O)c1cc2c(=O)[nH]c(-c3ccc4c(c3)CCCC4)cn2n1)c1ccc(F)cc1 [Example 1-133, N-[(1S)-1-(4-Fluorophenyl)-2-hydroxy-2-methylpropyl]-4-oxo-6-(5,6,7,8-tetrahydronaphthalen-2-yl)-4,5-dihydropyrazolo[1,5-a]pyrazine-2-carboxamide] | 2.8
CC(CN1CCOCC1)NC(=O)c1nn2cc(-c3ccc4ccccc4c3)[nH]c(=O)c2c1C(F)(F)F (single isomer, unassigned) [6-523] | 10.9
Cc1ccc(-c2cn3nc(C(=O)NC(CNC(=O)OC(C)(C)C)c4ccc(F)cc4)cc3c(=O)[nH]2)cc1C (centres unmarked) [6-42] | 4.85
COc1ccc(C2(NC(=O)c3cc4c(=O)[nH]c(-c5ccc6ccccc6c5)cn4n3)CN(C)C2)cn1 [6-63] | 7.1
Cc1ccc(-c2cn3nc(C(=O)NCC(O)C(F)(F)F)c(C4CC4)c3c(=O)[nH]2)cc1C (single isomer, unassigned) [6-437] | 0.77
Cc1ccc(-c2cn3nc(C(=O)N[C@@H](c4ccc(F)cc4)C(F)(F)CO)cc3c(=O)[nH]2)cc1F [6-645] | 6
Cc1ccc(-c2cn3nc(C(=O)N[C@H](C)c4ccc(F)cc4)cc3c(=O)[nH]2)cc1C [6-36] | 1.2
Cc1cccc2ncc(-c3cn4nc(C(=O)NC(C)c5cccnc5)c(C(C)C)c4c(=O)[nH]3)cc12 (centres unmarked) [Example 4-70, 3-Isopropyl-6-(5-methyl-3-quinolyl)-4-oxo-N-[1-(3-pyridyl)ethyl]-5H-pyrazolo[1,5-a]pyrazine-2-carboxamide] | 2.4
CCn1cc(CNC(=O)c2nn3c(C)c(-c4ccc5ccccc5c4)[nH]c(=O)c3c2C)c(C)n1 [Example 3-14, N-[(1-Ethyl-3-methyl-1H-pyrazol-4-yl)methyl]-3,7-dimethyl-6-(naphthalen-2-yl)-4-oxo-4,5-dihydropyrazolo[1,5-a]pyrazine-2-carboxamide] | 1.25
Cc1c(C(=O)NC2Cc3ccccc3C2)nn2c(C)c(-c3ccc4ccccc4c3)[nH]c(=O)c12 [Example 3-13, N-(2,3-Dihydro-1H-inden-2-yl)-3,7-dimethyl-6-(naphthalen-2-yl)-4-oxo-4,5-dihydropyrazolo[1,5-a]pyrazine-2-carboxamide] | 7.15
Cc1ccc(-c2cn3nc(C(=O)N[C@@H](c4ccc(F)cc4)C(C)(C)O)c(C(F)(F)F)c3c(=O)[nH]2)cc1C [Example 1-67, 6-(3,4-Dimethylphenyl)-N-[(1S)-1-(4-fluorophenyl)-2-hydroxy-2-methylpropyl]-4-oxo-3-(trifluoro-methyl)-4,5-dihydropyrazolo[1,5-a]pyrazine-2-carboxamide] | 0.905
Cc1ccc(-c2[nH]c(=O)c3c(C(F)(F)F)c(C(=O)NCCn4ccc(C5CC5)n4)nn3c2C)cc1C [Example 1-130, N-[2-(3-Cyclopropyl-1H-pyrazol-1-yl)ethyl]-6-(3,4-dimethylphenyl)-7-methyl-4-oxo-3-(trifluoromethyl)-4,5-dihydropyrazolo[1,5-a]pyrazine-2-carboxamide] | 2.55
O=C(NC1(c2ccc(F)cc2)COC1)c1cc2c(=O)[nH]c(-c3ccc4ccccc4c3)cn2n1 [6-56] | 0.74
Cc1cc(-c2cn3nc(C(=O)NC(C)(C)C4CC4)c(C(F)(F)F)c3c(=O)[nH]2)ccc1Cl [6-220] | 1.18
COCc1c(C(=O)N[C@H](CCO)c2ccc(F)cc2)nn2cc(-c3ccc4ccccc4c3)[nH]c(=O)c12 [Example 1-55, N-[(1R)-1-(4-Fluorophenyl)-3-hydroxopyl]-3-(methoxymethyl)-6-(naphthalen-2-yl)-4-oxo-4,5-dihydropyrazolo[1,5-a]pyrazine-2-carboxamide] | 0.488
Cc1c(C(=O)NC2(c3ccc(F)cc3)CC2)nn2cc(-c3ccc4ccccc4c3)[nH]c(=O)c12 [6-71] | 2.85

SMILES | IC50 [nM]
C[C@H](NC(=O)c1nn2cc(-c3ccc4ccccc4c3)[nH]c(=O)c2c1C#N)c1ccccc1 [Example 3-46, 3-Cyano-6-(naphthalen-2-yl)-4-oxo-N-[(1S)-1-phenylethyl]-4,5-dihydropyrazolo[1,5-a]pyrazine-2-carboxamide] | 3.2
Cc1ccc(-c2cn3nc(C(=O)N[C@@H](c4ccc(F)cc4)C(F)(F)CO)c(C)c3c(=O)[nH]2)cc1F [6-412] | 1.43
Cc1ccc(C(C)NC(=O)c2cc3c(=O)[nH]c(-c4ccc5ccccc5c4)cn3n2)cc1 (centres unmarked) [Example 2-44, N-[1-(4-Methylphenyl)ethyl]-6-(2-naphthyl)-4-oxo-4,5-dihydropyrazolo[1,5-a]pyrazine-2-carboxamide] | 1.3
Cc1ccc(-c2cn3nc(C(=O)N[C@H](CCO)c4ccc(F)cc4)c(Cl)c3c(=O)[nH]2)cc1C [Example 1-63, 3-Chloro-6-(3,4-dimethylphenyl)-N-[(1R)-1-(4-fluorophenyl)-3-hydroxypropyl]-4-oxo-4,5-dihydropyrazolo[1,5-a]pyrazine-2-carboxamide] | 0.443
Cc1ccc(-c2cn3nc(C(=O)NC(CO)c4ccc(F)cc4)c(C(F)(F)F)c3c(=O)[nH]2)cc1Cl (single isomer, unassigned) [6-155] | 2.8
COC[C@H](Cc1ccccc1)NC(=O)c1cc2c(=O)[nH]c(-c3ccc4ccccc4c3)cn2n1 [Example 2-25, N-[(2S)-1-Methoxy-3-phenylpropan-2-yl]-6-(2-naphthyl)-4-oxo-4,5-dihydropyrazolo[1,5-a]pyrazine-2-carboxamide] | 2.9
Cc1ccc(-c2cn3nc(C(=O)NCC(O)C(F)F)c(C4CC4)c3c(=O)[nH]2)cc1F (single isomer, unassigned) [6-371] | 2.7
Cc1c(C(=O)NCc2cccc(CN(C)C)c2)nn2c(C)c(-c3ccc4ccccc4c3)[nH]c(=O)c12 [Example 3-42, N-({3-[(Dimethylamino)methyl]phenyl}methyl)-3,7-dimethyl-6-(naphthalen-2-yl)-4-oxo-4,5-dihydropyrazolo[1,5-a]pyrazine-2-carboxamide] | 4.9
O=C(NCC(O)C(F)(F)F)c1nn2cc(-c3ccc4c(c3)OCCO4)[nH]c(=O)c2c1C(F)(F)F (single isomer, unassigned) [6-533] | 5.55
COCc1c(C(=O)N[C@H](C)c2ccc(OC)nc2)nn2cc(-c3ccc4ccccc4c3)[nH]c(=O)c12 [Example 1-22, 3-(Methoxymethyl)-N-[(1R)-1-(6-methoxypyridin-3-yl)ethyl]-6-(naphthalen-2-yl)-4-oxo-4,5-dihydropyrazolo[1,5-a]pyrazine-2-carboxamide] | 0.37
Cc1ccc(-c2cn3nc(C(=O)NCCN(C)C4CC4)c(C4CC4)c3c(=O)[nH]2)cc1C [6-661] | 1.43
Cc1nc(-c2cn3nc(C(=O)N[C@@H](c4ccc(F)cc4)C(F)(F)CO)c(C4CC4)c3c(=O)[nH]2)ccc1Cl [6-591] | 1.3
CCN(CCO)CC(NC(=O)c1nn2cc(-c3ccc4ccccc4c3)[nH]c(=O)c2c1C(F)(F)F)c1ccccc1 (centres unmarked) [Example 1-28, N-[2-[Ethyl(2-hydroxyethyl)amino]-1-phenylethyl]-6-(2-naphthyl)-4-oxo-3-(trifluoromethyl)-5H-pyrazolo[1,5-a]pyrazine-2-carboxamide] | 0.855
COc1ccc(C(C)NC(=O)c2nn3cc(-c4cnc5cccc(C)c5c4)[nH]c(=O)c3c2C(C)C)cc1 (centres unmarked) [Example 4-7, 3-Isopropyl-N-[1-(4-methoxyphenyl)ethyl]-6-(5-methyl-3-quinolyl)-4-oxo-5H-pyrazolo[1,5-a]pyrazine-2-carboxamide] | 1.14
COc1cc(-c2cn3nc(C(=O)N[C@@H](c4ccc(F)cc4)C(C)(C)O)c(C4CC4)c3c(=O)[nH]2)ccc1Cl [6-484] | 1.8
Cc1ccc(-c2cn3nc(C(=O)NC(c4ccc(C(F)(F)F)cc4)C(C)(C)O)c(C4CC4)c3c(=O)[nH]2)cc1C (single isomer, unassigned) [6-459] | 5.6
Cc1cc(-c2cn3nc(C(=O)NC4(c5ccc(F)cc5)CN(CC(F)F)C4)c(C(F)(F)F)c3c(=O)[nH]2)ccc1Cl [6-239] | 3.1
